Test results: patent publication EP4733761A1, “METHOD FOR SCREENING FOR PROTEINS ASSOCIATED WITH NEURODEGENERATIVE DISEASES AND THERAPEUTIC OR PROPHYLACTIC DRUGS FOR NEURODEGENERATIVE DISEASES” (priority 2023, dated 2026)
Peptide text beside a SMILES is read from it. * marks the point of attachment. Dansyl = CN(C)c1cccc2c(S(=O)(=O)*)cccc12

Columns and labels:
Dnc-PR20/Kapβ2 = test: Screening for DPRs-Kapβ2 binding inhibitors with additives (probe fluorescence attenuation); parameters: species or system human; details: Dnc-PR20 300 nM, Kapβ2 400 nM
Protocol: A buffer solution (20 mM Tris-HCl (pH 7.5), 150 mM NaCl, and 2 mM DTT (final concentration)) was used to prepare a mixture of Dnc-PR20 (final concentration 300 nM) and Kapβ2 (final concentration 400 nM), and an automatic dispensing system (Andrew+, Andrew Alliance) was used to add 20 µL/well of each to a 384-well microplate (Corning, 3820). After incubation at 35°C for 10 min, the fluorescence intensity (fluorescence wavelength: 520 nm) and fluorescence spectrum (fluorescence wavelength: 400-700 nm) were measured at an excitation wavelength of 340 nm using a microplate reader (Cytation 5, BioTek). Then, 5 µL/well of various concentrations of additives (poly K50 or IgG/pure water) were added using an automated pipetting system, and after incubation at 35°C for 10 minutes, the fluorescence intensity and fluorescence spectrum were measured under the same conditions. As a control, the Dnc-PR20 solution without Kapβ2 was measured for fluorescence intensity and fluorescence spectrum in the same manner.
In addition to poly K50 and IgG, the 520 nm fluorescence intensity of Dnc-PR20 was measured with PAMAM, GST-M9M, RanGTP, ATP, and HSA as additives, using the same procedure as in Section 6 above.

Kapβ2 = test: Kapβ2-induced fluorescence change of dansyl-DPR probes; type: binding, human; details: for fluorescence intensity / spectrum change on addition of Kapβ2: various Kapβ2 concentrations
Protocol: (§1) A buffer solution (20 mM Tris-HCl (pH 7.5), 150 mM NaCl, and 2 mM DTT (final concentration)) was used to prepare the probe solutions (final concentration 300 nM) for probes 1 to 7 above. Each probe solution was added to a 384-well microplate (Corning, 3575) at 30 µL/well using an automated pipetting system (Andrew+, Andrew Alliance). After incubation at 35°C for 10 min, fluorescence intensity (fluorescence wavelength: 520 nm) and fluorescence spectrum (fluorescence wavelength: 400-700 nm) at an excitation wavelength of 340 nm were measured using a microplate reader (Cytation 5, BioTek). Then, various concentrations of Kapβ2 solution (Kapβ2/pure water) were added to the 384-well microplate at 30 µL/well using an automated pipetting system. After incubation at 35°C for 10 minutes, fluorescence intensity and fluorescence spectrum were measured under the same conditions as above.

MBP-FUS = test: FUS-induced fluorescence change of dansyl-DPR probes; type: binding, human; details: for fluorescence intensity / spectrum change on addition of MBP-FUS: various MBP-FUS concentrations
Protocol: as §1
The same procedure as in Section 2 above was used, except that MBP-tagged FUS (MBP-FUS) solution (MBP-FUS/pure water) was used in place of the Kapβ2 solution, to measure the fluorescence intensity and fluorescence spectra of Dnc-PR20 (probe 1) and Dnc-GP20 (probe 2).

[1] = test system: α1-antitrypsin, albumin (HSA), apotransferrin, lysozyme, immunoglobulin G (IgG); test: Fluorescence change of probes by various proteins: other control proteins; type: binding, human; chicken; details: 1600 nM protein solutions; probe 300 nM
Protocol: as §1
(§2) The fluorescence intensity and fluorescence spectra of Dnc-PR20 (probe 1) and Dnc-GP20 (probe 2) were measured using the same procedure as described in Section 2 above, except that aqueous solutions (1600 nM) of bovine milk-derived β-lactoglobulin, human serum-derived α1-antitrypsin, human serum-derived albumin (HSA), human serum-derived apotransferrin, chicken egg white-derived lysozyme, or human serum-derived immunoglobulin G (IgG) were used in place of the Kapβ2 solution.

β-lactoglobulin = test: Fluorescence change of probes by various proteins: β-lactoglobulin; type: binding, bovine; details: for fluorescence spectrum / 540 nm fluorescence intensity change on addition of β-lactoglobulin: 1600 nM protein solution, probe 300 nM
Protocol: as §1, §2

Impα = test: Fluorescence change of probes by LLPS-related proteins: Impα; type: binding, human; details: Impα solution 1600 nM (Figure 8)
Protocol: as §1
(§3) In addition to the proteins tested in Sections 2 to 4 above, aqueous solutions of proteins that may be relevant to the formation or control of liquid-liquid phase separation (LLPS) were used to measure the 520 nm fluorescence intensity of Dnc-PR20 (probe 1) and Dnc-GP20 (probe 2). The following proteins were used as proteins that may be associated with the formation or regulation of LLPS were Imb-2, hnRNPA2LC, PPIA, Impα, Impβ, GST-M9M, and RanGTP. […]

Imb-2 = test: Fluorescence change of probes by LLPS-related proteins: Imb-2; type: binding, C. elegans; details: Imb-2 solution 800 nM (Figure 8)
Protocol: as §1, §3

Impβ = test: Fluorescence change of probes by LLPS-related proteins: Impβ; type: binding, human; details: Impβ solution 1600 nM (Figure 8)
Protocol: as §1, §3

[2] = probe 300 nM, excitation 340 nm

## 50-mer polylysine [poly K50]
Dnc-PR20/Kapβ2; additive 0-300 nM
  fluorescence intensity change of Dnc-PR20 in Dnc-PR20/Kapβ2 solution: decreased in a poly K50 concentration-dependent manner
Dnc-PR20/Kapβ2; control = Dnc-PR20 solution without Kapβ2
  additive concentration resulting in a fluorescence intensity comparable to that of the control: 200 nM
Dnc-PR20/Kapβ2; various additives (Figure 10)
  520 nm fluorescence intensity change of Dnc-PR20 in Dnc-PR20/Kapβ2 mixture: attenuated

## CN(C)c1cccc2c(S(=O)(=O)NCC(=O)N3CCC[C@H]3C(=O)NCC(=O)N3CCC[C@H]3C(=O)NCC(=O)N3CCC[C@H]3C(=O)NCC(=O)N3CCC[C@H]3C(=O)NCC(=O)N3CCC[C@H]3C(=O)NCC(=O)N3CCC[C@H]3C(=O)NCC(=O)N3CCC[C@H]3C(=O)NCC(=O)N3CCC[C@H]3C(=O)NCC(=O)N3CCC[C@H]3C(=O)NCC(=O)N3CCC[C@H]3C(=O)O)cccc12 [Dnc-GP10, Dansyl-NH-(Gly-Pro)10-COOH] (Dansyl-GPGPGPGPGPGPGPGPGPGP-OH)
Kapβ2; [2]
  fluorescence intensity / spectrum change on addition of Kapβ2: unchanged

## CN(C)c1cccc2c(S(=O)(=O)NCC(=O)N3CCC[C@H]3C(=O)NCC(=O)N3CCC[C@H]3C(=O)NCC(=O)N3CCC[C@H]3C(=O)NCC(=O)N3CCC[C@H]3C(=O)NCC(=O)N3CCC[C@H]3C(=O)NCC(=O)N3CCC[C@H]3C(=O)NCC(=O)N3CCC[C@H]3C(=O)NCC(=O)N3CCC[C@H]3C(=O)NCC(=O)N3CCC[C@H]3C(=O)NCC(=O)N3CCC[C@H]3C(=O)NCC(=O)N3CCC[C@H]3C(=O)NCC(=O)N3CCC[C@H]3C(=O)NCC(=O)N3CCC[C@H]3C(=O)NCC(=O)N3CCC[C@H]3C(=O)NCC(=O)N3CCC[C@H]3C(=O)NCC(=O)N3CCC[C@H]3C(=O)NCC(=O)N3CCC[C@H]3C(=O)NCC(=O)N3CCC[C@H]3C(=O)NCC(=O)N3CCC[C@H]3C(=O)NCC(=O)N3CCC[C@H]3C(=O)O)cccc12 [Dnc-GP20, Dansyl-NH-(Gly-Pro)20-COOH] (Dansyl-GPGPGPGPGPGPGPGPGPGPGPGPGPGPGPGPGPGPGPGP-OH)
Kapβ2; [2]
  fluorescence intensity / spectrum change on addition of Kapβ2: little changed
MBP-FUS; [2]
  fluorescence intensity / spectrum change on addition of MBP-FUS: hardly changed
[1]
  fluorescence spectrum change on addition of the other proteins: did not exhibit substantial changes
β-lactoglobulin
  fluorescence spectrum / 540 nm fluorescence intensity change on addition of β-lactoglobulin: did not exhibit substantial changes

## CN(C)c1cccc2c(S(=O)(=O)NCC(=O)N[C@@H](CCCNC(=N)N)C(=O)NCC(=O)N[C@@H](CCCNC(=N)N)C(=O)NCC(=O)N[C@@H](CCCNC(=N)N)C(=O)NCC(=O)N[C@@H](CCCNC(=N)N)C(=O)NCC(=O)N[C@@H](CCCNC(=N)N)C(=O)NCC(=O)N[C@@H](CCCNC(=N)N)C(=O)NCC(=O)N[C@@H](CCCNC(=N)N)C(=O)NCC(=O)N[C@@H](CCCNC(=N)N)C(=O)NCC(=O)N[C@@H](CCCNC(=N)N)C(=O)NCC(=O)N[C@@H](CCCNC(=N)N)C(=O)O)cccc12 [Dnc-GR10, Dansyl-NH-(Gly-Arg)10-COOH] (Dansyl-GRGRGRGRGRGRGRGRGRGR-OH)
Kapβ2; [2]
  fluorescence intensity / spectrum change on addition of Kapβ2: increased in a Kapβ2 concentration-dependent manner

## C[C@H](NC(=O)[C@@H]1CCCN1C(=O)[C@H](C)NC(=O)[C@@H]1CCCN1C(=O)[C@H](C)NC(=O)[C@@H]1CCCN1C(=O)[C@H](C)NC(=O)[C@@H]1CCCN1C(=O)[C@H](C)NC(=O)[C@@H]1CCCN1C(=O)[C@H](C)NC(=O)[C@@H]1CCCN1C(=O)[C@H](C)NC(=O)[C@@H]1CCCN1C(=O)[C@H](C)NC(=O)[C@@H]1CCCN1C(=O)[C@H](C)NC(=O)[C@@H]1CCCN1C(=O)[C@H](C)NC(=O)[C@@H]1CCCN1S(=O)(=O)c1cccc2c(N(C)C)cccc12)C(=O)O [Dnc-PA10, Dansyl-NH-(Pro-Ala)10-COOH] (Dansyl-PAPAPAPAPAPAPAPAPAPA-OH)
Kapβ2; [2]
  fluorescence intensity / spectrum change on addition of Kapβ2: unchanged

## CN(C)c1cccc2c(S(=O)(=O)N3CCC[C@H]3C(=O)N[C@@H](CCCNC(=N)N)C(=O)N3CCC[C@H]3C(=O)N[C@@H](CCCNC(=N)N)C(=O)N3CCC[C@H]3C(=O)N[C@@H](CCCNC(=N)N)C(=O)N3CCC[C@H]3C(=O)N[C@@H](CCCNC(=N)N)C(=O)N3CCC[C@H]3C(=O)N[C@@H](CCCNC(=N)N)C(=O)N3CCC[C@H]3C(=O)N[C@@H](CCCNC(=N)N)C(=O)N3CCC[C@H]3C(=O)N[C@@H](CCCNC(=N)N)C(=O)N3CCC[C@H]3C(=O)N[C@@H](CCCNC(=N)N)C(=O)N3CCC[C@H]3C(=O)N[C@@H](CCCNC(=N)N)C(=O)N3CCC[C@H]3C(=O)N[C@@H](CCCNC(=N)N)C(=O)O)cccc12 [Dnc-PR10, Dansyl-NH-(Pro-Arg)10-COOH] (Dansyl-PRPRPRPRPRPRPRPRPRPR-OH)
Kapβ2; [2]
  fluorescence intensity / spectrum change on addition of Kapβ2: increased in a Kapβ2 concentration-dependent manner

## CN(C)c1cccc2c(S(=O)(=O)N3CCC[C@H]3C(=O)N[C@@H](CCCNC(=N)N)C(=O)N3CCC[C@H]3C(=O)N[C@@H](CCCNC(=N)N)C(=O)N3CCC[C@H]3C(=O)N[C@@H](CCCNC(=N)N)C(=O)N3CCC[C@H]3C(=O)N[C@@H](CCCNC(=N)N)C(=O)N3CCC[C@H]3C(=O)N[C@@H](CCCNC(=N)N)C(=O)N3CCC[C@H]3C(=O)N[C@@H](CCCNC(=N)N)C(=O)N3CCC[C@H]3C(=O)N[C@@H](CCCNC(=N)N)C(=O)N3CCC[C@H]3C(=O)N[C@@H](CCCNC(=N)N)C(=O)N3CCC[C@H]3C(=O)N[C@@H](CCCNC(=N)N)C(=O)N3CCC[C@H]3C(=O)N[C@@H](CCCNC(=N)N)C(=O)N3CCC[C@H]3C(=O)N[C@@H](CCCNC(=N)N)C(=O)N3CCC[C@H]3C(=O)N[C@@H](CCCNC(=N)N)C(=O)N3CCC[C@H]3C(=O)N[C@@H](CCCNC(=N)N)C(=O)N3CCC[C@H]3C(=O)N[C@@H](CCCNC(=N)N)C(=O)N3CCC[C@H]3C(=O)N[C@@H](CCCNC(=N)N)C(=O)N3CCC[C@H]3C(=O)N[C@@H](CCCNC(=N)N)C(=O)N3CCC[C@H]3C(=O)N[C@@H](CCCNC(=N)N)C(=O)N3CCC[C@H]3C(=O)N[C@@H](CCCNC(=N)N)C(=O)N3CCC[C@H]3C(=O)N[C@@H](CCCNC(=N)N)C(=O)N3CCC[C@H]3C(=O)N[C@@H](CCCNC(=N)N)C(=O)O)cccc12 [Dnc-PR20, Dansyl-NH-(Pro-Arg)20-COOH] (Dansyl-PRPRPRPRPRPRPRPRPRPRPRPRPRPRPRPRPRPRPRPR-OH)
Kapβ2; 1600 nM Kapβ2, probe 300 nM, excitation 340 nm
  540 nm fluorescence intensity increase compared to the fluorescence intensity at 0 nM Kapβ2: approximately 6.1 fold
Kapβ2; Kapβ2 solution 1600 nM (Figure 8)
  520 nm fluorescence: above 1000
Kapβ2; [2]
  fluorescence intensity / spectrum change on addition of Kapβ2: increased in a Kapβ2 concentration-dependent manner
Impα
  520 nm fluorescence: above 1000
MBP-FUS; 1600 nM MBP-FUS, probe 300 nM, excitation 340 nm
  540 nm fluorescence intensity increase compared to the fluorescence intensity at 0 nM MBP-FUS: approximately 4.6 fold
MBP-FUS; MBP-FUS solution 1600 nM (Figure 8)
  520 nm fluorescence: above 1000
MBP-FUS; [2]
  fluorescence intensity / spectrum change on addition of MBP-FUS: increased in an MBP-FUS concentration-dependent manner
Imb-2
  520 nm fluorescence: above 1000
[1]
  fluorescence spectrum change on addition of the other proteins: did not exhibit substantial changes
Impβ
  520 nm fluorescence: above 1000
β-lactoglobulin
  fluorescence spectrum / 540 nm fluorescence intensity change on addition of β-lactoglobulin: slightly increased
β-lactoglobulin; β-lactoglobulin solution 1600 nM (Figure 8)
  520 nm fluorescence: above 1000

## Dansyl-NH-(Gly-Ala)19-COOH (Dansyl-GAGAGAGAGAGAGAGAGAGA-OH) [Dnc-GA10]
Kapβ2; [2]
  fluorescence intensity / spectrum change on addition of Kapβ2: unchanged
